Measurements from patent US20240181049A1, “HARNESSING THE POWER OF MICROBIOTA AND METABOLITES FOR THE TREATMENT OF CANCER” (UTI LIMITED PARTNERSHIP, priority 2019, published 2024).

How the values were obtained:
[1] = tested on: MC38; test: MC38 tumors in SPF mice, inosine or B. pseudolongum + anti-CTLA-4; assay type: in vivo; details: oral gavage
Description: FIG. 35A-35H. Inosine and live B. pseudolongum improve anti-CTLA-4 therapy efficacy in moderately diverse and complex microbiomes. A) Schematic overview of experimental setup to assess the effect of inosine on anti-tumor immunity in gnotobiotic mice (Oligo-MM12) stably colonized with 12 bacterial species. Upon palpable tumors, Oligo-MM12 colonized mice were treated with 100 μg anti-CTLA-4 i.p. or Isotype antibody (5 times every 72 hours). In addition, inosine (300 mg/KG/BW) or PBS was given daily orally through gavage. (B) Pictures of tumors and (C) tumor weight are shown at day 20. scale bars: 1 cm. (D) Quantification of intratumoral IFN-γ+ cells amongst CD8+ or CD4+ T cells are shown. (E) Schematic overview of experimental setup to assess the effect of inosine and B. pseudolongum on anti-tumor immunity in SPF mice. Following MC38 injection some mice received antibiotics (ABX), specifically Ampicillin 1 mg/ml, Colistin 1 mg/ml and Streptomycin 5 mg/ml for 7 days in the drinking water. Upon palpable tumors, antibiotics were removed and 100 μg anti-CTLA-4 (5 times every 72 hours) started. Mice concomitantly received either PBS, inosine (300 mg/KG/BW daily), B. pseudolongum or heat inactivated (H.i.) B. pseudolongum orally through gavage (5 times every 72 hours). […] (H) Quantification of intratumoral IFN-γ+ cells amongst CD8+ or CD4+ cells are shown. […]

[2] = molecular target: A2AR (Homo sapiens, UniProt P29274); details: compared to adenosine; cited from earlier work
Sequence of A2AR (P29274 whole entry): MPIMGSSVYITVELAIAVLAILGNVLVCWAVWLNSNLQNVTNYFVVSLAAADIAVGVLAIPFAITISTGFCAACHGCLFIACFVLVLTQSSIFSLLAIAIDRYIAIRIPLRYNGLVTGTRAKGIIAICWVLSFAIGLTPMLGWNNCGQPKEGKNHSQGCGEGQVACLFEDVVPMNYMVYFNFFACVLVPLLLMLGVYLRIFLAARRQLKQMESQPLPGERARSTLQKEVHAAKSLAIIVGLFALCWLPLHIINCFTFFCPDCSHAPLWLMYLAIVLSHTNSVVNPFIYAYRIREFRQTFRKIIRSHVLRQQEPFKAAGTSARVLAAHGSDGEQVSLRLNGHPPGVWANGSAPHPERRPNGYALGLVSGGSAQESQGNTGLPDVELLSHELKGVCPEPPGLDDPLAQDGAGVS

**Q.** With `OC[C@H]1O[C@@H](n2cnc3c(O)ncnc32)[C@H](O)[C@@H]1O` [inosine] as the compound, how does the “efficacy of anti-CTLA-4” value [1] read?
**A.** The value was “could promote the efficacy of anti-CTLA-4”.

**Q.** What about the “A2AR-dependent signaling bias, preference for ERK1/2 phosphorylation” value [2] of the same compound?
**A.** Its value is 3.3 fold.
